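Results reflect a 48-hour exposure of cells in 96-well plates to compound at five concentrations. The concentration for 50% growth inhibition is given as GI50. The concentration for full growth arrest is given as TGI.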
What was measured:
Experiment in all cases: inhibition of tumour cell growth, NCI panel, 48 h
[1] = system: HL-60(TB) leukemia
[2] = system: CAKI-1 renal
[3] = system: RPMI-8226 leukemia
[4] = system: HCT-116 colon
[5] = system: PC-3 prostate
[6] = system: SR leukemia
[7] = system: SK-MEL-28 melanoma
[8] = system: 786-0 renal
[9] = system: HT29 colon
[10] = system: SF-268 CNS
[11] = system: TK-10 renal
[12] = system: SF-295 CNS
[13] = system: DU-145 prostate
[14] = system: NCI-H23 lung
[15] = system: M14 melanoma
[16] = system: SF-539 CNS
[17] = system: UACC-62 melanoma
[18] = system: OVCAR-4 ovarian
[19] = system: NCI-H460 lung
[20] = system: MCF7 breast
[21] = system: NCI-H522 lung
[22] = system: OVCAR-5 ovarian
[23] = system: HOP-62 NSCLC
[24] = system: ACHN renal
[25] = system: UO-31 renal
[26] = system: HCT-15 colon
[27] = system: RXF 393 renal
[28] = system: MOLT-4 leukemia
[29] = system: SNB-19 CNS
[30] = system: SK-OV-3 ovarian
[31] = system: UACC-257 melanoma
[32] = system: SK-MEL-2 melanoma
[33] = system: EKVX NSCLC
[34] = system: MDA-MB-231 breast
[35] = system: BT-549 breast
[36] = system: K-562 leukemia
[37] = system: T-47D breast
[38] = system: NCI/ADR-RES ovarian
[39] = system: MALME-3M melanoma
[40] = system: HOP-92 NSCLC
[41] = system: LOX IMVI melanoma
[42] = system: NCI-H226 lung
[43] = system: A549 NSCLC
[44] = system: A498 renal
[45] = system: HS 578T breast
[46] = system: OVCAR-8 ovarian
[47] = system: U251 CNS
[48] = system: COLO 205 colon
[49] = system: MDA-MB-435
[50] = system: HCC-2998 colon
[51] = system: SK-MEL-5 melanoma
[52] = system: SNB-75 CNS
[53] = system: OVCAR-3 ovarian
[54] = system: KM12 colon
[55] = system: SN12C renal
[56] = system: SW-620 colon
[57] = system: IGROV1 ovarian

CC(=O)O[C@H]1CCC2(C)C(=CCC3C2CCC2(C)/C(=N/OC(=O)c4ccc(N(CCCl)CCCl)cc4)CCC32)C1 (stereo partly specified)
GI50 [1]: 7.01 µM
TGI [1]: > 100 µM
GI50 [2]: 3.88 µM
TGI [2]: > 100 µM
GI50 [3]: 5.68 µM
TGI [3]: > 100 µM
GI50 [4]: 2.34 µM
TGI [4]: > 100 µM
GI50 [5]: 7.99 µM
TGI [5]: > 100 µM
GI50 [6]: 1.4 µM
TGI [6]: 5.98 µM
GI50 [7]: > 100 µM
TGI [7]: > 100 µM
GI50 [8]: 4.21 µM
TGI [8]: > 100 µM
GI50 [9]: 4.92 µM
TGI [9]: > 100 µM
GI50 [10]: 2.55 µM
TGI [10]: 7.71 µM
GI50 [11]: 8.71 µM
TGI [11]: > 73.6 µM
GI50 [12]: 3.84 µM
TGI [12]: > 58 µM
GI50 [13]: > 89.1 µM
TGI [13]: > 100 µM
GI50 [14]: 6 µM
TGI [14]: > 100 µM
GI50 [15]: 20.3 µM
TGI [15]: > 100 µM
GI50 [16]: 6.89 µM
TGI [16]: > 100 µM
GI50 [17]: 7.86 µM
TGI [17]: > 100 µM
GI50 [18]: 7.78 µM
TGI [18]: > 100 µM
GI50 [19]: 4.65 µM
TGI [19]: > 100 µM
GI50 [20]: 12.7 µM
TGI [20]: > 100 µM
GI50 [21]: 4.88 µM
TGI [21]: > 82.8 µM
GI50 [22]: > 72.8 µM
TGI [22]: > 100 µM
GI50 [23]: 4.42 µM
TGI [23]: 24.9 µM
GI50 [24]: 5.19 µM
TGI [24]: > 100 µM
GI50 [25]: 1.99 µM
TGI [25]: > 20.8 µM
GI50 [26]: 8.87 µM
TGI [26]: > 100 µM
GI50 [27]: 3.05 µM
TGI [27]: 45.9 µM
GI50 [28]: 4.91 µM
TGI [28]: > 100 µM
GI50 [29]: 3.16 µM
TGI [29]: 98.2 µM
GI50 [30]: > 100 µM
TGI [30]: > 100 µM
GI50 [31]: > 100 µM
TGI [31]: > 100 µM
GI50 [32]: 32.4 µM
TGI [32]: > 100 µM
GI50 [33]: 8.78 µM
TGI [33]: > 100 µM
GI50 [34]: 4.46 µM
TGI [34]: > 100 µM
GI50 [35]: 8.67 µM
TGI [35]: > 100 µM
GI50 [36]: 3.9 µM
TGI [36]: > 100 µM
GI50 [37]: 4.02 µM
TGI [37]: > 100 µM
GI50 [38]: 5.73 µM
TGI [38]: > 100 µM
GI50 [39]: > 65.4 µM
TGI [39]: > 100 µM
GI50 [40]: 13.8 µM
TGI [40]: > 100 µM
GI50 [41]: 2.6 µM
TGI [41]: > 100 µM
GI50 [42]: > 45.3 µM
TGI [42]: > 100 µM
GI50 [43]: 2.45 µM
TGI [43]: 8.37 µM
GI50 [44]: 3.52 µM
TGI [44]: > 62.8 µM
GI50 [45]: 2.41 µM
TGI [45]: 13.5 µM
GI50 [46]: 4.02 µM
TGI [46]: > 100 µM
GI50 [47]: 1.88 µM
TGI [47]: > 28.8 µM
GI50 [48]: > 100 µM
TGI [48]: > 100 µM
GI50 [49]: 10.8 µM
TGI [49]: > 100 µM
GI50 [50]: > 55.5 µM
TGI [50]: > 100 µM
GI50 [51]: 20.4 µM
TGI [51]: > 100 µM
GI50 [52]: 4.47 µM
TGI [52]: 42.7 µM
GI50 [53]: 9.84 µM
TGI [53]: > 100 µM
GI50 [54]: 7.13 µM
TGI [54]: > 100 µM
GI50 [55]: 5.48 µM
TGI [55]: > 100 µM
GI50 [56]: > 100 µM
TGI [56]: > 100 µM

CN(C)CCC=C1c2ccccc2C=Cc2ccccc21
TGI [2]: 35.7 µM
TGI [3]: 52.3 µM
TGI [4]: 30.7 µM
TGI [5]: 35 µM
TGI [6]: 42.8 µM
TGI [7]: 31.3 µM
TGI [8]: 30.5 µM
TGI [9]: 19.2 µM
TGI [10]: 30.9 µM
TGI [11]: 29.8 µM
TGI [12]: 32.8 µM
TGI [13]: 35.4 µM
TGI [14]: 35.1 µM
TGI [57]: 31.5 µM
TGI [15]: 32.6 µM
TGI [17]: 30.3 µM
TGI [18]: 68.1 µM
TGI [19]: 28.9 µM
TGI [20]: 29.9 µM
TGI [21]: 37 µM
TGI [22]: 29.5 µM
TGI [23]: 33 µM
TGI [24]: 30.9 µM
TGI [25]: 32 µM
TGI [26]: 33.1 µM
TGI [27]: 34.3 µM
TGI [28]: 42.6 µM
TGI [29]: 41.7 µM
TGI [30]: 31.4 µM
TGI [31]: 28.3 µM
TGI [32]: 32.3 µM
TGI [33]: 28.7 µM
TGI [34]: 31.5 µM
TGI [35]: 31.8 µM
TGI [36]: 56 µM
TGI [37]: 44.8 µM
TGI [38]: 31.2 µM
TGI [39]: 31.9 µM
TGI [40]: 34.9 µM
TGI [41]: 31.6 µM
TGI [43]: 39.6 µM
TGI [44]: 29.4 µM
TGI [45]: 42.3 µM
TGI [46]: 30.5 µM
TGI [47]: 29.8 µM
TGI [48]: 29.3 µM
TGI [49]: 36.5 µM
TGI [50]: 18.5 µM
TGI [51]: 27.5 µM
TGI [52]: 31.1 µM
TGI [53]: 31.1 µM
TGI [54]: 35.3 µM
TGI [55]: 32.5 µM
TGI [56]: 38.2 µM
